Patent publication US20150087037A1, “FERMENTATION PROCESS” (LanzaTech New Zealand Limited, priority 2013, published 2015)

What was measured:
[1] = system: C. autoethanogenum DSM23693; assay: Minimum 2-HIBA concentration needed to impact 2,3-butanediol production, continuous addition through the media (Example 4); type: cell-based, Clostridium autoethanogenum
Protocol: (§1) Fermentations with C. autoethanogenum DSM23693 were carried out in 1.5 L bioreactors at 37° C. The media was prepared according to Table 1. To achieve anaerobicity the reactor vessel was sparged with nitrogen. Prior to inoculation, the gas was switched to either steel mill gas containing H2 (3%), N2 (30%), CO (47%) and CO2 (20%) or pure gases (50% CO, 18-40% CO2, with the balance N2). The gas flow was initially set at 67 ml/min/L, increasing to 200 ml/min during mid-exponential phase, while the agitation was increased from 200 rpm to 800. Na2S was dosed into the bioreactor at 0.25 ml/hr. Once the OD600 reached 1.5, the bioreactor was switched to a continuous mode at a dilution rate of 2.0-1.6 d-l and a bacterial dilution rate of 0.9-0.6 d-l. During continuous mode gas and agitation were adjusted to 900-950 rpm and 800-900 ml/min. Na2S was increased to 1.0 ml/hr.
(§2) Liquid culture samples were taken at differing intervals over the duration of the fermentation. These samples were used to establish the optical density at 600 nm (spectrophotometer) and the level of substrates and products (high performance liquid chromatography—HPLC). HPLC was routinely used to quantify the level of acetate, ethanol and 2,3-butanediol. The input and output gas compositions were analysed using a gas chromatographer (GC), allowing measurement of CO and H2 consumption and CO2 production by the culture.
In order to understand the minimum concentrations needed to generate the same effect the concentration used was dropped to 0.1 g/L (0.96 mM) in one example and 0.05 g/L (0.48 mM) in another example. Both fermentations had gas increased to minimize acetate and maximize ethanol production. Additional CO2 was blended into the gas stream to maximize 2,3-BDO production, the gas blend used was 50% CO, 35% CO2, 1.5% H2 with N2 balance. The dilution rate and bacterial dilution rate were adjusted to 1.8 day^−1 and 0.8 day^−1 respectively. Once stable data was collected continuous 2-HIBA addition through the media was started and resulting impact on metabolite concentrations observed. In both examples the ratio before the addition of 2-HIBA was about 2:1, and the resulting impact on the Ethanol:2,3-BDO ratio was proportional to the concentration of 2-HIBA used. In the first example where 0.1 g/L (0.96 mM) was used the ratio improved to 1:1 and when the concentration was halved (in the second example) the response was an improvement in the ratio to only 1.5:1.
In two further experiments concentrations from 0.01 g/L to 0.1 g/L (0.096, 0.24, 0.48, 0.72, 0.96 mM) were added and the impact on the metabolites observed. Again the fermentations had gas increased to minimize acetate and maximize ethanol production with CO2 blended into the gas stream to maximize 2,3-BDO production. The dilution rate and bacterial dilution rate were adjusted to 1.8 day^−1 and 0.9 day^−1 respectively. The gas blend used was 42% CO, 35% CO2, 1.5% H2 with N2 balance.

[2] = system: C. autoethanogenum DSM23693; assay: Fermentation started in the presence of 2-HIBA, impact on growth (Example 5); type: cell-based, Clostridium autoethanogenum
Protocol: as §1, §2
To see if the 2-HIBA impacts negatively on growth a fermentation was started in the presence of 0.05 g/L (0.48 mM) 2-HIBA. During growth gas and agitation were increased so that by day 5.0 the agitation had reached a maximum of 950 rpm and the gas flow 800 ml/min. At this time the dilution rate was 1.8 day^−1 and the bacterial dilution rate 0.85 day^−1.

[3] = system: branch chain amino acid production; assay: Monitoring BCAA production during 2-HIBA addition (Example 7); type: cell-based, Clostridium autoethanogenum; conditions: FIG. 11
Source text: In order to generate further evidence that 2-HiBA interferes with branch chain amino acid production, the concentrations of these amino acids were monitored directly before and after the addition of 2-HIBA. FIG. 11 illustrates the results; immediately after the addition of 2-HIBA the concentrations of valine, leucine and isoleucine drop as well as biomass.

[4] = system: Ketol-acid reductoisomerase IlvC; assay: Inhibition of ketol-acid reductoisomerase; type: biochemical, Clostridium autoethanogenum; conditions: mode of action proposed from gene expression and BCAA data
Source text: The addition of 2-HIBA impacts the metabolism of Clostridium autoethanogenum. […] In native systems the expression and activity of Acetolcatate synthase IlvBN is down regulated by branched chain amino acid synthesis. The addition of 2-HIBA to the fermentation inhibits Ketol-acid recuctoisomerase IlvC, branch chained amino acid biosynthesis, which results in a decrease in the concentration of valine, isoleucine and leucine. As a result, feedback inhibition of the IlvBN enzyme by valine, isoleucine and leucine is removed. This causes an increase in acetolactate production. An increase in the acetolactate pool leads to an overflow of carbon to 2,3-butanediol. The conversion of acetolactate and acetoin to 2,3-BDO are not rate limited, and conversion to 2,3-BDO freely occurs without the need to further up regulate enzymes responsible for the conversion of acetolactate to acetoin and/or the conversion of acetoin to 2,3-BDO.
Ketol-acid reductoisomerase is inhibited by the presence of 2-HIBA. It is considered that other compounds having similar structural characteristics to 2-HIBA and the substrates that the enzyme works on (acetolactate. 2-oxo-3-hydroxyisovalerate and 2,3-dihydroxy-3-methylbutanoate) would have a similar effect on Ketol acid reductoisomerase. […]

[5] = system: Clostridium autoethanogenum; assay: Fermentation of gaseous substrate comprising CO with 2-HIBA: general findings and carbon balance; type: cell-based
Source text: Accordingly, the inventors are the first to devise a process for producing high concentrations of 2,3-butanediol through the microbial fermentation of a gaseous substrate comprising CO. In a first stage, a gaseous substrate comprising CO is fed to a bioreactor containing a culture of one or more microorganisms suspending in liquid nutrient media. The gaseous substrate is anaerobically fermented to produce one or more alcohols and/or one or more acids or mixtures thereof. Compounds are provided to the fermentation to alter the metabolite profile of the fermentation.
Carbon balance measurements were performed to confirm the shift to increased 2,3-butanediol production after addition of 2-HIBA.
As the 2-HIBA is not consumed by the fermentation, it is possible to recover 2-HIBA exiting the bioreactor and pass it back to the bioreactor to improve the efficiency of the fermentation.

[6] = over time after 2-HIBA addition

SMILES: CC(C)(O)C(=O)O [2-HIBA, 2-hydroxyisobutyric acid]
- lowest concentration that impacts on the production of 2,3-butanediol ([1]; 0.01 g/L to 0.1 g/L tested, 0.01 g/L = 0.096 mM): 0.01 g/L
- CO uptake ([1]; Expt 1: 0.96 mM/day HIBA addition, before 9.4): 9.8 mol/L/day
- 2,3-BDO ([1]; Expt 1: 0.96 mM/day HIBA addition, before 9.67): 16.35 g/L
- Biomass ([1]; Expt 1: 0.96 mM/day HIBA addition, before 10.7): 9.83 g/L
- Ethanol ([1]; Expt 1: 0.96 mM/day HIBA addition, before 20.33): 17.05 g/L
- CO uptake ([1]; Expt 2: 0.48 mM/day HIBA addition, before 8.2): 8 mol/L/day
- 2,3-BDO ([1]; Expt 2: 0.48 mM/day HIBA addition, before 8.42): 10.56 g/L
- Biomass ([1]; Expt 2: 0.48 mM/day HIBA addition, before 12.69): 12.14 g/L
- Ethanol ([1]; Expt 2: 0.48 mM/day HIBA addition, before 18.73): 15.56 g/L
- drop of Ethanol:2,3-BDO ratio ([1]; for every 0.05 g/L (0.48 mM) added to a stable fermentation, data of four examples, FIG. 8): 0.5 units
- average ethanol concentration ([2]; 0.05 g/L (0.48 mM) 2-HIBA): 17 g/L
- impact on the growth of the fermentation ([2]; 0.05 g/L (0.48 mM) 2-HIBA in the media from start): no impact on the growth
- 2,3-butanediol concentration ([2]; 0.05 g/L (0.48 mM) 2-HIBA, average): 15.5 g/L
- concentrations of valine, leucine and isoleucine and biomass ([3]; immediately after the addition of 2-HIBA (100 mg, 0.96 mM)): drop
- concentration of isoleucine [3, 6]: appears to recover
- concentration of leucine and valine [3, 6]: remaining lower than the value before 2-HIBA addition
- effect on Ketol-acid reductoisomerase [4]: inhibited
- 2,3-BDO concentration ([5]; 2-HIBA at 0.01 g/L-2.0 g/L (0.096 to 19.2 mM)): significantly increases
- ethanol:2,3-BDO ratio ([5]; addition of 2-HIBA): significantly improves
- carbon balance ([5]; before and after addition of 2-HIBA, FIG. 14): clear increase in 2,3-butanediol production, accompanied by a decrease in production of ethanol, acetate and biomass
- overall fermentation stability ([5]; continuous addition, 0.01 g/L/day-2.0 g/L/day (0.096 to 19.2 mM/day)): without affecting overall fermentation stability
